Like-named read-outs stand apart in the source and are kept apart here.
Biological target: T1, Human autotaxin enzyme (Homo sapiens, UniProt Q13822)
T1 construct: purchased R&D System
Assay: Evaluation of autotaxin inhibitor, 18:0 Lyso PC / choline assay (Test Example 2)
Type: biochemical
How it was run: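 Inhibition derived from concentration-dependent curves, scaled between no-compound (0%) and no-enzyme (100%) wells. Choline generated from 18:0 Lyso PC (200 μM stock) by human enzyme over 2 h at room temperature (Tris-HCl pH 7.5, NaCl, MgCl2, Triton X-100) read as resorufin fluorescence, 531/598 nm, after choline oxidase-peroxidase coupling.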

[1] = human autotaxin enzyme, 18:0 Lyso PC substrate, choline assay, room temperature 2 hours, read-out: Inhibitor activity (IC50)
[2] = autotaxin inhibition, IC50 class, read-out: Inhibitor activity

| Compound | IC50 [1] [nM] | IC50 [2] [nM] |
| --- | --- | --- |
| O=C(Cn1c(COCC(F)(F)F)nc(-c2ccc(Cl)cc2)cc1=O)NCC1(CO)CC1 [Compound I-0211] | 10 to 100 | – |
| O=C(Cn1c(COCC2CC2)nc(-c2ccc(Cl)cc2)cc1=O)NCC1(CO)CC1 [Compound I-0212] | 100 to 1000 | – |
| CCCOCc1nc(-c2ccc(Cl)cc2)cc(=O)n1CC(=O)NCC(C)(C)O [Compound I-0213] | 100 to 1000 | – |
| CC(C)(O)CNC(=O)Cn1c(COCC2CC2)nc(-c2ccc(Cl)cc2)cc1=O [Compound I-0214] | 100 to 1000 | – |
| CC(C)(O)CNC(=O)Cn1c(COCC(F)(F)F)nc(-c2ccc(Cl)cc2)cc1=O [Compound I-0215] | 10 to 100 | – |
| CC(C)(C)OC(=O)Cn1c(CCC(F)(F)F)nc(-c2ccc(Cl)cc2)cc1=O [Compound I-0216] | 100 to 1000 | – |
| N#CC1(NC(=O)Cn2c(CCCC(F)(F)F)nc(N3CCC(C(F)(F)F)CC3)cc2=O)CC1 [Compound I-0217] | 10 to 100 | – |
| N#CC1(NC(=O)Cn2c(CCCC(F)(F)F)nc(-c3ccc(Cl)cc3)c(F)c2=O)CC1 [Compound I-0218] | 100 to 1000 | – |
| N#CC1(NC(=O)Cn2c(CCCC(F)(F)F)nc(N3CCC(Cc4ccccc4)C3)cc2=O)CC1 (centres unmarked) [Compound I-0219] | 100 to 1000 | – |
| N#CCc1cc(OC(F)(F)F)ccc1-c1cc(=O)n(CC(=O)NC2(C#N)CC2)c(CCCC(F)(F)F)n1 [Compound I-0220] | 10 to 100 | – |
| CCOCCc1nc(-c2ccc(Cl)cc2)cc(=O)n1CC(=O)NC1(C#N)CC1 [Compound I-0221] | 10 to 100 | – |
| CCOCCc1nc(-c2ccc(Cl)cc2)cc(=O)n1CC(=O)NCC(C)(C)O [Compound I-0222] | 100 to 1000 | – |
| CCOCCc1nc(-c2ccc(Cl)cc2)cc(=O)n1CC(=O)NCC1(CO)CC1 [Compound I-0223] | 100 to 1000 | – |
| CNc1cc(Cl)ccc1-c1cc(=O)n(CC(=O)NC2(C#N)CC2)c(CCCC(F)(F)F)n1 [Compound I-0224] | 100 to 1000 | – |
| N#CC1(NC(=O)Cn2c(CCCC(F)(F)F)nc(-c3ccc(C(F)(F)F)cc3)cc2=O)CC1 [Compound I-0225] | < 10 | – |
| N#CC1(NC(=O)Cn2c(CCCC(F)(F)F)nc(-c3ccc(Cl)cc3O)cc2=O)CC1 [Compound I-0226] | 100 to 1000 | – |
| N#Cc1ccc(-c2cc(=O)n(CC(=O)NC3(C#N)CC3)c(CCCC(F)(F)F)n2)cc1 [Compound I-0227] | < 10 | – |
| N#CC1(NC(=O)Cn2c(CCCC(F)(F)F)nc(-c3ccc(Cl)cc3F)cc2=O)CC1 [Compound I-0228] | < 10 | – |
| COCCCc1nc(-c2ccc(Cl)cc2)cc(=O)n1CC(=O)NC1(C#N)CC1 [Compound I-0229] | 100 to 1000 | – |
| COCCCc1nc(-c2ccc(Cl)cc2)cc(=O)n1CC(=O)NCC(C)(C)O [Compound I-0230] | 100 to 1000 | – |
| COCCCc1nc(-c2ccc(Cl)cc2)cc(=O)n1CC(=O)NCC1(CO)CC1 [Compound I-0231] | 100 to 1000 | – |
| N#CC1(NC(=O)Cn2c(CCCC(F)(F)F)nc(C3=CCC(C(F)(F)F)CC3)cc2=O)CC1 (centres unmarked) [Compound I-0232] | < 10 | – |
| N#CC1(NC(=O)Cn2c(CCCC(F)(F)F)nc(-c3ccc(C(F)(F)F)nc3)cc2=O)CC1 [Compound I-0233] | 10 to 100 | – |
| N#CC1(NC(=O)Cn2c(CCCC(F)(F)F)nc(-c3c(F)cc(Cl)cc3F)cc2=O)CC1 [Compound I-0234] | 10 to 100 | – |
| N#Cc1ccc(-c2cc(=O)n(CC(=O)NC3(C#N)CC3)c(CCCC(F)(F)F)n2)c(F)c1 [Compound I-0235] | < 10 | – |

| Compound | IC50 [1] [nM] | IC50 [2] [nM] |
| --- | --- | --- |
| CC1(C)CN(c2cc(=O)n(CC(=O)NC3(C#N)CC3)c(CCCC(F)(F)F)n2)C1 [Compound I-0236] | ≥ 1000 | – |
| N#CC1(NC(=O)Cn2c(CCCC(F)(F)F)nc(N3CCC(F)(F)CC3)cc2=O)CC1 [Compound I-0237] | 100 to 1000 | – |
| COC1CCN(c2cc(=O)n(CC(=O)NC3(C#N)CC3)c(CCCC(F)(F)F)n2)CC1 [Compound I-0238] | 100 to 1000 | – |
| CC(C)(C)N1CCN(c2cc(=O)n(CC(=O)NC3(C#N)CC3)c(CCCC(F)(F)F)n2)CC1 [Compound I-0239] | ≥ 1000 | – |
| CC(C)CC1CCN(c2cc(=O)n(CC(=O)NC3(C#N)CC3)c(CCCC(F)(F)F)n2)C1 (centres unmarked) [Compound I-0240] | 100 to 1000 | – |
| N#CC1(NC(=O)Cn2c(CCCC(F)(F)F)nc(N3CCC(C(F)(F)F)CC3)c(F)c2=O)CC1 [Compound I-0241] | – | ≥ 1000 |
| N#CC1(NC(=O)Cn2c(OCCC(F)(F)F)nc(-c3ccc(Cl)cc3)cc2=O)CC1 [Compound I-0242] | – | 100 to 1000 |
| CSc1nc(-c2ccc(Cl)cc2NC(C)=O)cc(=O)n1CC(=O)NC1(C#N)CC1 [Compound I-0243] | – | 10 to 100 |
| CC(=O)Nc1cc(Cl)ccc1-c1cc(=O)n(CC(=O)OC(C)(C)C)cn1 [Compound I-0244] | – | 10 to 100 |
| CC(=O)Nc1cc(Cl)ccc1-c1cc(=O)n(CC(=O)OC(C)(C)C)c(C)n1 [Compound I-0245] | – | < 10 |
| CC(=O)Nc1cc(Cl)ccc1-c1cc(=O)n(CC(=O)O)cn1 [Compound I-0246] | – | ≥ 1000 |
| CC(=O)Nc1cc(Cl)ccc1-c1cc(=O)n(CC(=O)O)c(C)n1 [Compound I-0247] | – | ≥ 1000 |
| CC(=O)Nc1cc(Cl)ccc1-c1cc(=O)n(CC(=O)NC2(C#N)CC2)c(C)n1 [Compound I-0248] | – | 10 to 100 |
| CC(=O)Nc1cc(Cl)ccc1-c1cc(=O)n(CC(=O)NC2(C#N)CC2)cn1 [Compound I-0249] | – | 100 to 1000 |
| CSc1nc(-c2ccc(Cl)cc2NC(C)=O)cc(=O)n1CC(=O)NCC(C)(C)O [Compound I-0250] | – | 10 to 100 |
| CSc1nc(-c2ccc(Cl)cc2NC(C)=O)cc(=O)n1CC(=O)NC(C)(C)C [Compound I-0251] | – | 10 to 100 |
| CSc1nc(-c2ccc(Cl)cc2NC(C)=O)cc(=O)n1CC(=O)NC(C)(C)CO [Compound I-0252] | – | 10 to 100 |
| COC(=O)Cn1c(CCCC(F)(F)F)nc(-c2ccc(C(F)(F)F)nc2)cc1=O [Compound I-0253] | – | 100 to 1000 |
| COC(=O)Cn1c(CCCC(F)(F)F)nc(-c2ccc(C(F)(F)F)cc2)cc1=O [Compound I-0254] | – | 10 to 100 |
| O=C(O)Cn1c(CCCC(F)(F)F)nc(-c2ccc(C(F)(F)F)cc2)cc1=O [Compound I-0255] | – | ≥ 1000 |
| CCc1nc(-c2ccc(Cl)cc2NC(C)=O)cc(=O)n1CC(=O)NC1(C#N)CC1 [Compound I-0256] | – | 10 to 100 |
| N#CC1(NC(=O)Cn2c3nc(cc2=O)-c2ccc(Cl)cc2NC(=O)/C=C/CCO3)CC1 [Compound I-0257] | – | 10 to 100 |
| Cc1nc(-c2ccc(C#N)cc2NC(=O)C2CC2)cc(=O)n1CC(=O)O [Compound I-0258] | ≥ 1000 | – |
| Cc1nc(-c2ccc(Cl)cc2NC(=O)C2CC2)cc(=O)n1CC(=O)O [Compound I-0259] | ≥ 1000 | – |
| Cc1nc(-c2ccc(C#N)cc2NC(=O)C(C)(C)C)cc(=O)n1CC(=O)O [Compound I-0260] | ≥ 1000 | – |

| Compound | IC50 [1] [nM] | IC50 [2] [nM] |
| --- | --- | --- |
| Cc1nc(C2=CCC(C(F)(F)F)CC2)cc(=O)n1CC(=O)NC1(C#N)CC1 (centres unmarked) [Compound I-0261] | 100 to 1000 | – |
| Cc1nc(C2=CCC(C(F)(F)F)CC2)cc(=O)n1Cc1cccc(C(=O)O)c1 (centres unmarked) [Compound I-0262] | 100 to 1000 | – |
| COC(=O)Nc1cc(C#N)ccc1-c1cc(=O)n(CC(=O)OC(C)(C)C)c(C)n1 [Compound I-0263] | < 10 | – |
| O=C(O)Cn1c(CCCC(F)(F)F)nc(-c2ccc(Cl)cc2CO)cc1=O [Compound I-0264] | ≥ 1000 | – |
| COC(=O)Nc1cc(Cl)ccc1-c1cc(=O)n(CC(=O)NC(C)(C)C)c(C)n1 [Compound I-0265] | 10 to 100 | – |
| COC(=O)Nc1cc(Cl)ccc1-c1cc(=O)n(CC(=O)OC(C)(C)C)c(C)n1 [Compound I-0266] | < 10 | – |
| CC(=O)Nc1cc(Cl)ccc1-c1cc(=O)n(Cc2cccc(C(=O)O)c2)c(C)n1 [Compound I-0267] | < 10 | – |
| Cc1nc(C2=CCC(C(F)(F)F)CC2)cc(=O)n1CC(=O)NCC1(CO)COC1 (centres unmarked) [Compound I-0268] | ≥ 1000 | – |
| COC(=O)Nc1cc(Cl)ccc1-c1cc(=O)n(CC(=O)N(C)C(C)(C)C)c(C)n1 [Compound I-0269] | 10 to 100 | – |
| Cc1nc(-c2ccc(F)cc2NC(=O)C2CC2)cc(=O)n1Cc1cccc(C(=O)O)c1 [Compound I-0270] | 10 to 100 | – |
| Cc1nc(-c2ccc(C#N)cc2NC(=O)C2CC2)cc(=O)n1Cc1cccc(C(=O)O)c1 [Compound I-0271] | < 10 | – |
| COC(=O)Nc1cc(Cl)ccc1-c1cc(=O)n(CC(=O)N2CCCC2(C)C)c(C)n1 [Compound I-0272] | 10 to 100 | – |
| Cc1nc(-c2ccc(Cl)cc2NC(=O)C(C)(C)C)cc(=O)n1CC(=O)NC(C)(C)C [Compound I-0273] | 10 to 100 | – |
| COC(=O)Nc1cc(Cl)ccc1-c1cc(=O)n(CC(=O)N(C)C2(C)COC2)c(C)n1 [Compound I-0274] | 10 to 100 | – |
| COC(=O)Nc1cc(Cl)ccc1-c1cc(=O)n(CC(=O)NCC2(CO)CC2)c(C)n1 [Compound I-0275] | 10 to 100 | – |
| COC(=O)Nc1cc(Cl)ccc1-c1cc(=O)n(CC(=O)N(C(C)C)C(C)C)c(C)n1 [Compound I-0276] | 10 to 100 | – |
| COC(=O)Nc1cc(Cl)ccc1-c1cc(=O)n(CC(=O)N(C)C(C)(C)CO)c(C)n1 [Compound I-0277] | 10 to 100 | – |
| Cc1nc(-c2ccc(F)cc2NC(=O)C(C)(C)C)cc(=O)n1Cc1cccc(C(=O)O)c1 [Compound I-0278] | 10 to 100 | – |
| Cc1nc(-c2ccc(Cl)cc2NC(=O)C2CC2)cc(=O)n1Cc1cccc(C(=O)O)c1 [Compound I-0279] | < 10 | – |
| O=C(O)c1ccc(Cn2c(CCCC(F)(F)F)nc(-c3ccc(Cl)cc3)cc2=O)o1 [Compound I-0280] | 10 to 100 | – |
| Cc1nc(-c2ccc(F)cc2NC(=O)C2CC2)cc(=O)n1CC(=O)NCC1(CO)COC1 [Compound I-0281] | 100 to 1000 | – |
| Cc1nc(-c2ccc(C#N)cc2NC(=O)C(C)(C)C)cc(=O)n1Cc1cccc(C(=O)O)c1 [Compound I-0282] | < 10 | – |
| CC(C)(C)OC(=O)NCn1c(CCCC(F)(F)F)nc(-c2ccc(Cl)cc2)cc1=O [Compound I-0283] | 100 to 1000 | – |
| CC(C)(C)OC(=O)Cn1c(CCCC(F)(F)F)nc(-c2ccc(Cl)cc2F)cc1=O [Compound I-0284] | 10 to 100 | – |

Reference: patent US10183949B2, “Pyrimidinone derivative having autotaxin-inhibitory activity” (The University of Tokyo, priority 2014, dated 2019)
